Data from patent US7968526B2, “Antisense oligonucleotides directed to ribonucleotide reductase R2 and uses thereof in the treatment of cancer” (Lorus Therapeutics Inc., priority 2003, dated 2011).

Columns and labels:
[1] = test system: C8161 human metastatic melanoma cells; assay: Experimental metastasis assay, C8161 cells, treatment post tumour cell injection; format: in vivo, human cells in mice; settings: C8161 cells i.v. into SCID mice; treatment initiated after 2 days; lungs 5-7 weeks later
Description: C8161 human melanoma cells were seeded into 100 mm tissue culture dishes at a density of 2×10^6 and incubated overnight at 37° C. in α-MEM medium supplemented with 10% FBS. The cells were trypsinized, collected by centrifugation and aliquots were removed from the suspension to determine the cell viability using trypan blue exclusion test. […] Treatment was initiated after 2 days. Estimates of the number of lung nodules were made 5-7 weeks later, after excised lungs from individual mice were stained with picric acid dye solution (75% picric acid, 20% formaldehyde, 5% glacial acetic acid).
Murine R3 fibrosarcoma and human C8161 melanoma cells injected into the tail vein of mice form observable lung nodules 2 weeks post-injection. […] To more accurately reflect the clinical situation, mice were treated with SEQ ID NO:1 post tumour cell injection. C8161 human metastatic melanoma cells were seeded into 100 mm tissue culture dishes at a density of 2×10^6 and incubated overnight at 37° C. in α-MEM medium supplemented with 10% FBS. The cells were trypsinized, collected by centrifugation and aliquots were removed from the suspension to determine the cell viability using trypan blue exclusion test. Approximately 1×10^5 cells suspended in 0.1 ml of PBS were injected into the tail veins of 6-8 week old female SCID mice. Treatment was initiated after 2 days. Estimates of the number of lung nodules were made 5-7 weeks later, after excised lungs from individual mice were stained with picric acid dye solution (75% picric acid, 20% formaldehyde, 5% glacial acetic acid). The results are shown in FIG. 31, bars represent the mean number of nodules per mouse with standard error.

[2] = test system: BxPC-3 human pancreatic carcinoma cells; assay: BxPC-3 gemcitabine resistant pancreatic carcinoma xenograft in CD-1 nude mice; format: in vivo, human cells in mice; settings: Gemcitabine 100 mg/kg i.v. every three days
Description: BxPC-3 is a gemcitabine resistant call line. […] Gemcitabine was administered intravenously every three days at a dose of 100 mg/kg. Antitumour activities were estimated by the inhibition of tumour volume, which was measured with caliper. Each point represents mean tumour volume calculated from 10 animals per experimental group. […] Hela S3 is a hydroxyurea resistant cell line. […] Hydroxyurea was administered intraperitoneally every day at a dose of 250 mg/kg for 10 days. Cisplatin was administered intravenously once a week for three weeks at a dose of 4 mg/kg. Antitumour activities were estimated by the inhibition of tumour volume, which was measured with caliper. Each point represents mean tumour volume calculated from 10 animals per experimental group. […] Cisplatin was administered intravenously once a week for three weeks at a dose of 4 mg/kg. Taxol was administered intravenously once a week for three weeks at a dose of 10 mg/kg. Antitumour activities were estimated by the inhibition of tumour volume, which was measured with caliper. Each point represents mean tumour volume calculated from 10 animals per experimental group. […] Taxol was administered i.p. once a week at a dose of 10 mg/kg. Antitumour activities were estimated by the inhibition of tumour volume (FIG. 12A), which was measured with calipers. Each point represents mean tumour volume calculated from 10 animals per experimental group. Animals were sacrificed and tumour weights taken at the end of the study (FIG. 12C). […] Cisplatin was administered intravenously once a week for four weeks at a dose of 4 mg/kg. Taxol was administered intravenously once a week for four weeks at a dose of 20 mg/kg. Antitumour activities were estimated by the inhibition of tumour volume, which was measured with caliper. Each point represents mean tumour volume calculated from 9-10 animals per experimental group. […] Cisplatin was administered intravenously once a week for four weeks at a dose of 4 mg/kg. Antitumour activities were estimated by the inhibition of tumour volume, which was measured with caliper. Each point represents mean tumour volume calculated from 10 animals per experimental group. At the end of the study the animals were sacrificed and tumours weighed. […] Taxol was administered i.p. once a week at a dose of 10 mg/kg. Anti-tumour activity was estimated by the inhibition of tumour volume, which was measured with caliper. Each point represents mean tumour volume calculated from 10 animals per experimental group. […] Antitumour activities were estimated by the inhibition of tumour volume, which was measured with caliper. Each point represents mean tumour volume calculated from 10 animals per experimental group. Tumour weights were measured after animals were sacrificed at the end of the treatment. […]

5′-GGCTAAATCGCTCCACCAAG-3′ (all phosphorothioate, sugars by position and methylation of C not given here) [SEQ ID NO: 1, fully phosphorothioated antisense oligonucleotide that hybridizes to the coding region of R2 mRNA]
Lung nodule formation / anti-metastatic activity (FIG. 31) [1]: only one of the 9 mice had lung nodules | Tumour weight as % of saline control ([2]; BxPC-3 (pancreatic), Gemcitabine resistant, CD-1, SEQ ID NO:1 10 mg/kg i.v. every other day 17 times): 5.8% | Antitumour effect (tumour volume, FIG. 9) ([2]; BxPC-3 gemcitabine resistant, CD-1 nude mice, SEQ ID NO:1 10 mg/kg i.v. every other day): significant delay of tumour growth compared to saline control
